Data reported in US7385051B2, “Fluorescent N2,N3-etheno-purine (2′-deoxy) riboside derivatives and uses thereof” (Bar-llan University, priority 2005, dated 2008).
Values joined by “and” are separate entries in the source; they are usually repeats but may differ in a detail not shown here. Equal values may be shown once. “Also recorded” adds a separate entry of the source. Read-outs that look alike come from different tables or passages of the source.

Experiments:
[1] = cited from earlier work
[2] = cited from earlier work; remark: listed apart in the source
[3] = Fluorescence life-time; type: physicochemical
Protocol: Fluorescent emission is a random process, and the excited molecules emit photons within a certain time, usually of the order of ns. For N^2,N3-ε-A, 4, and N^2,N3-ε-2′-deoxy-A, 23, fluorescence life times of 2.26 and 2.1 ns, respectively, were measured. These life times are relatively long and are therefore more convenient for the fluorescence measurements.

[4] = Emission (fluorescence) spectra and quantum yield, quinine sulfate as reference; type: physicochemical; set-up: Emission λmax: unit not given here; details: for Maximum emission (λmax) in water / Quantum yield (φ) in water: excitation at 290 nm (4), 330 nm (17); for φ290: 290 nm
Protocol: Emission spectra of compounds 4 and 23 were measured using an Aminco-Bowman series 2 Luminescence Spectrometer. Measurement conditions included: 740-750 V sensitivity, and a 4 or 2 nm slit in the emission spectra for aqueous or organic solutions, respectively. Emission spectra were corrected by the subtraction of the medium's emission spectrum. Spectra were determined in dilute HCl or NaOH solutions in the pH range of 1.6-12.3 or at pH 7. The concentration of the samples of 4 was of the order of 4.85×10^−5 M for aqueous and organic solutions and of 23 in the order of 5.04×10^−5 M for aqueous solutions. All organic solvents were freshly distilled prior to emission measurements. Measurements of the emission of the nucleoside analogue were conducted with subtraction of the solvent's emission. The quantum yield of each compound was calculated from the observed absorbance at 290 nm and the area of the fluorescence emission band. Quinine sulfate was used as reference compound assuming a quantum yield value of 0.55 (Andrew et al., 1988).

[5] = pKa determination by pH-titration monitored by fluorescence spectroscopy; type: physicochemical
From the text: H-bonding pattern of N^2,N3-ε-A is dependent not only on tautomeric equilibria, but also on acid-base equilibria, namely, on protonation states. For analyzing the protonation state of N^2,N3-ε-A at physiological pH, we determined the pKa values of this system.
Specifically, we monitored the pH-titration of N^2,N3-E-A, 4, by fluorescence spectroscopy. 1×10^−5 M solutions of N^2,N3-ε-A-5′-mono-phosphate were titrated by HCl in the pH range of 1.5-7.0.

[6] = Absorption spectra (UV-Visible) in aqueous solution at several pH values; type: physicochemical; set-up: Absorption λmax: unit not given here
Protocol: Absorption spectra of compounds 4 and 23 were measured using a Varian array-1E UV-Visible spectrometer. Spectra were determined in dilute HCl or NaOH solutions in the pH range of 1.6-12.3 or at pH 7.0. The concentration of the samples of 4 in aqueous solutions and in organic solvents was of the order of 4.85×10^−5 M and of 23 in aqueous solutions was of the order of 5.04×10^−5 M.

[7] = Stability under automated DNA synthesis conditions (TLC and MS); type: physicochemical
Protocol: In order for a compound to be used in automated DNA synthesis, it has to be able to withstand the conditions of the different reactions in the synthesis. For example, it has to be stable in the treatment with 28% ammonia for two hours at 60° C.

[8] = biological target: T1, rat brain P2Y1-receptor (Rattus norvegicus, UniProt P49651); assay: Agonist-induced Ca2+ release in HEK 293 cells stably transfected with P2Y1-receptor; type: cell-based; details: HEK 293 cells with rat brain P2Y1-receptor
T1 construct: expressed in transfected cells
From the text: To examine the efficacy of analogues 30a,d in a functional assay, we tested them by the agonist-induced Ca^2+ release in HEK 293 cells stably transfected with rat brain P2Y1-receptor (FIG. 6) (Voehringer et al., 2000). […] However, a benzyl substitution at N^6 of 30a, as in analogue 30d, reduced the ligand's potency. […] EC50 value in the range of 10^−6 M.

[9] = in DMF (εd 37.6), 4.85 × 10^−5 M
[10] = in DMSO (εd 47.6), 4.85 × 10^−5 M
[11] = in Dioxane (εd 2.2), 4.85 × 10^−5 M
[12] = 1×10^−5 M solutions of the 5′-mono-phosphate titrated by HCl, pH 1.5-7.0, listed as N^2,N3-ε-A

T1 sequence (P49651 whole entry): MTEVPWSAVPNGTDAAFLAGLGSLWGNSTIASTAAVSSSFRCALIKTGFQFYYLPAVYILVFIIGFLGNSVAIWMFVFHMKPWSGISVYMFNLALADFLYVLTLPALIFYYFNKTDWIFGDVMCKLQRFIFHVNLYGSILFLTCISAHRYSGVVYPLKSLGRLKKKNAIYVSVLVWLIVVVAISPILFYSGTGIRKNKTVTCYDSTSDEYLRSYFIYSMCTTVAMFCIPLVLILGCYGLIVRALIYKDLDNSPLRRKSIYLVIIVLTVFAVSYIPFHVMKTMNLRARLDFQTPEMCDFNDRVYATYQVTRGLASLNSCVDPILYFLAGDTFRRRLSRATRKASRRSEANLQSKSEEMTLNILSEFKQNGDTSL

Which “Emission λmax” value ([1]; Secrist et al., 1972, Thomas and Leonard, 1976) does the source give for OC[C@H]1O[C@@H](n2cnc3c2ncn2ccnc32)[C@H](O)[C@@H]1O [Compound 1, N1,N^6-etheno-adenosine] here?
The value was 415 nm.

For O=c1nc2[nH]ccn2c2c1ncn2[C@@H]1O[C@H](CO)[C@@H](O)[C@H]1O [Compound 3, N^2,N3-etheno-guanosine], which pKa ([2]; literature (Glemarec et al., 1991 for the ε-G compounds)) is on record?
The pKa was 2.11.

What about the “pKa of N7” value ([2]; literature value as quoted) of the same molecule?
The value was 5.20.

And the Maximum emission ([1]; excitation at 280 nm, Sattsangi et al., 1977)?
The Maximum emission was 410 nm.

What about the “Emission maximum in water” value ([1]; in water, Kusmierek et al., 1987) of the same molecule?
The value was 410 nm.

Which Fluorescence life time [3] does the source give for Nc1nc2nccn2c2c1ncn2C1OC(CO)C(O)C1O (centres unmarked) [Compound 4, N^2,N3-etheno-adenosine] here?
The Fluorescence life time was 2.26 ns.

And the “Fluorescence at acidic pH” value ([4]; acidic pH)?
Its value is “significant fluorescence”.

What about the “Emission λmax” value [4, 9] of the same molecule?
Its value is 448.

What about the “φ (quantum yield)” value [4, 9] of the same molecule?
The value was 0.082.

And the “Emission λmax” value [4, 10]?
The value was 458.

And the “φ (quantum yield)” value [4, 10]?
The value was 0.085.

What about the “Emission λmax” value [4, 11] of the same molecule?
The value was 434.

What about the “φ (quantum yield)” value [4, 11] of the same molecule?
The value was 0.042.

What about the “Maximum emission (λmax) in water” value [4] of the same molecule?
Its value is 420 nm.

What about the “Quantum yield (φ) in water” value [4] of the same molecule?
Its value is 0.03.

What about the “Emission λmax” value ([4]; pH 1.6, 4.85 × 10−5 M) of the same molecule?
The value was 396.

What about the “φ (quantum yield)” value ([4]; pH 1.6, 4.85 × 10−5 M) of the same molecule?
Its value is 0.021.

And the “Emission λmax” value ([4]; pH 7.0, 4.85 × 10−5 M)?
The value was 420.

And the “φ (quantum yield)” value ([4]; pH 7.0, 4.85 × 10−5 M)?
Its value is 0.032.

What about the “Emission λmax” value ([4]; pH 12.3, 4.85 × 10−5 M) of the same molecule?
The value was 420.

What about the “φ (quantum yield)” value ([4]; pH 12.3, 4.85 × 10−5 M) of the same molecule?
Its value is 0.031.

And the “pKa (first; assigned to the exocyclic amine)” value [5, 12]?
Its value is 1.92.

And the “pKa (second; attributed to N8)” value [5, 12]?
Its value is 3.16.

And the “pKa (third; N7, most basic nitrogen)” value [5, 12]?
The value was 6.09.

What about the “pKa (first; assigned to the exocyclic amine)” value ([5]; pH 1.5) of the same molecule?
The value was 1.92±0.08.

What about the “pKa (second; attributed to N8)” value ([5]; pH 1.5) of the same molecule?
Its value is 3.16±0.24.

And the “pKa (third; N7, most basic nitrogen)” value ([5]; pH 1.5)?
The value was 6.09±0.16.

And the “Non-protonated fraction at physiological pH” value ([5]; pH 7.4)?
The value was 96%.

And the “Absorption bands in water” value ([6]; in water)?
Its value is 234 nm and 274 nm.

And the “Absorption coefficient of the band at 234 nm” value ([6]; in water, 234 nm)?
Its value is 12.6×10^3.

And the “Absorption coefficient of the band at 274 nm” value ([6]; in water, 274 nm)?
Its value is 3.3×10^3.

What about the “Absorption λmax” value ([6]; pH 1.6, 4.85 × 10^−5 M) of the same molecule?
The value was 224 and 268.

And the εd ([6]; pH 1.6, band at λmax 224)?
Its εd is 6.17 × 10^3.

What about the εd ([6]; pH 1.6, band at λmax 268) of the same molecule?
Its εd is 14.22 × 10^3.

What about the “Absorption λmax” value ([6]; pH 7.0, 4.85 × 10^−5 M) of the same molecule?
Its value is 234 and 274.

What about the εd ([6]; pH 7.0, band at λmax 234) of the same molecule?
Its εd is 12.58 × 10^3.

And the εd ([6]; pH 7.0, band at λmax 274)?
The εd was 3.31 × 10^3.

What about the “Absorption λmax” value ([6]; pH 12.3, 4.85 × 10^−5 M) of the same molecule?
The value was 234 and 276.

What about the εd ([6]; pH 12.3, band at λmax 234) of the same molecule?
Its εd is 13.89 × 10^3.

What about the εd ([6]; pH 12.3, band at λmax 276) of the same molecule?
Its εd is 3.69 × 10^3.

For O=c1c2ncn(C3O[C@H](CO)[C@@H](O)[C@H]3O)c2[nH]c2nccn12 (some centres unmarked) [Compound 5], which “Fluorescence” value ([1]; Sattsangi et al., 1977, Kusmierek et al., 1992) is on record?
Its value is “non-fluorescent”.

For CSc1nc2nccn2c2c1ncn2C1OC(CO)C(O)C1O (centres unmarked) [Compound 17, N^2,N3-etheno-6-methylthio-purine riboside], which “Maximum emission (λmax) in water” value [4] is on record?
Its value is 520 nm and 518 nm.

And the “Quantum yield (φ) in water” value [4]?
The value was 0.15.

And the “Emission λmax” value ([4]; pH 1.6, 5.04 × 10^−5 M)?
Its value is 492 and 516.

What about the “φ (quantum yield)” value ([4]; pH 1.6, 5.04 × 10^−5 M) of the same molecule?
The value was 0.037.

What about the “Emission λmax” value ([4]; pH 7.0, 5.04 × 10^−5 M) of the same molecule?
The value was 494 and 518.

And the “φ (quantum yield)” value ([4]; pH 7.0, 5.04 × 10^−5 M)?
Its value is 0.152.

And the “Emission λmax” value ([4]; pH 12.3, 5.04 × 10^−5 M)?
Its value is 494 and 520.

What about the “φ (quantum yield)” value ([4]; pH 12.3, 5.04 × 10^−5 M) of the same molecule?
The value was 0.067.

What about the “Absorption bands in water” value ([6]; in water) of the same molecule?
Its value is 227 nm and 247 nm and 307 nm and 345 nm.

What about the “Absorption λmax” value ([6]; pH 1.6, 5.04 × 10^−5 M) of the same molecule?
Its value is 227 and 243 and 301 and 331.

What about the εd ([6]; pH 1.6, band at λmax 227) of the same molecule?
The εd was 16.52 × 10^3.

What about the εd ([6]; pH 1.6, band at λmax 243) of the same molecule?
The εd was 13.57 × 10^3.

And the εd ([6]; pH 1.6, band at λmax 301)?
Its εd is 7.39 × 10^3.

And the εd ([6]; pH 1.6, band at λmax 331)?
Its εd is 7.13 × 10^3.

What about the “Absorption λmax” value ([6]; pH 7.0, 5.04 × 10^−5 M) of the same molecule?
Its value is 231 and 247 and 307 and 345.

And the εd ([6]; pH 7.0, band at λmax 231)?
Its εd is 16.09 × 10^3.

And the εd ([6]; pH 7.0, band at λmax 247)?
Its εd is 13.25 × 10^3.

And the εd ([6]; pH 7.0, band at λmax 307)?
The εd was 7.07 × 10^3.

What about the εd ([6]; pH 7.0, band at λmax 345) of the same molecule?
The εd was 2.90 × 10^3.

And the “Absorption λmax” value ([6]; pH 12.3, 5.04 × 10^−5 M)?
The value was 233 and 307.

What about the εd ([6]; pH 12.3, band at λmax 233) of the same molecule?
Its εd is 19.29 × 10^3.

And the εd ([6]; pH 12.3, band at λmax 307)?
The εd was 5.95 × 10^3.

Which results are given for Nc1nc2nccn2c2c1ncn2C1CC(O)C(CO)O1 (centres unmarked) [Compound 23]?
Fluorescence life time [3]: 2.1 ns; Stability against 2% dichloroacetic acid ([7]; 2% dichloroacetic acid, 2 min): stable; Stability in 28% ammonia ([7]; 28% ammonia, two hours at 60° C.): stable; φ290 ([4]; pH 7.0): 0.085; ε (238 nm) ([6]; pH 7.0): 4.67×10^3; ε (308 nm) ([6]; pH 7.0): 1.23×10^3

With Nc1c2ncn(C3CC(O)C(CO)O3)c2nc2nccn12 (centres unmarked) [Compound 25, N1,N^2-etheno-2′-deoxy-adenosine] as the molecule, how does the φ290 ([4]; pH 7.0) read?
The φ290 was 0.07.

And the “ε (238 nm)” value ([6]; pH 7.0)?
The value was 4.12×10^3.

And the “ε (308 nm)” value ([6]; pH 7.0)?
Its value is 1.02×10^3.

What does the source list for O=P(O)(O)OP(=O)(O)OP(=O)(O)OCC1OC(n2cnc3c(NCc4ccccc4)nc4nccn4c32)C(O)C1O (centres unmarked) [Compound 30d, N^6-Benzyl-N^2,N3-ethenoadenosine-5′-triphosphate]?
EC50 ([8]; Ca^2+ release): ~1 µM; Potency at P2Y1-R compared to ATP / 30a [8]: reduction by one order of magnitude; also recorded: significant reduction of the affinities
